Data: patent publication US12018021B2 (UCB Biopharma SRL, priority 2018, dated 2024)

Target: IgE-Tb / sFcεRIα-Y131A-AF488 (Homo sapiens, UniProt P01854, N146Q/N252Q)
Assay: IgE-Tb / sFcεRIα-Y131A-AF488 FRET assay (protocol for examples 234 to 501)
Type: binding
Settings: examples 234 to 501: compound with IgE-Tb 30 minutes before sFcεRIα-Y131A-AF488, incubated 18 hours at room temperature; read-out: Y131A FRET IC50 range
In short: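 Compounds (10-point 3-fold series, top usually 10 μM, 2% DMSO) preincubated 30 min with 5 nM IgE-Tb, then 25 nM sFcεRIα-Y131A-AF488 added; 18 h at room temperature in the dark. TR-FRET ratio 520/490 nm after 337 nm excitation, background-subtracted; IC50 by four-parameter logistic fit.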

IgE-Tb / sFcεRIα-Y131A-AF488, sequence (P01854 whole entry N146Q/N252Q): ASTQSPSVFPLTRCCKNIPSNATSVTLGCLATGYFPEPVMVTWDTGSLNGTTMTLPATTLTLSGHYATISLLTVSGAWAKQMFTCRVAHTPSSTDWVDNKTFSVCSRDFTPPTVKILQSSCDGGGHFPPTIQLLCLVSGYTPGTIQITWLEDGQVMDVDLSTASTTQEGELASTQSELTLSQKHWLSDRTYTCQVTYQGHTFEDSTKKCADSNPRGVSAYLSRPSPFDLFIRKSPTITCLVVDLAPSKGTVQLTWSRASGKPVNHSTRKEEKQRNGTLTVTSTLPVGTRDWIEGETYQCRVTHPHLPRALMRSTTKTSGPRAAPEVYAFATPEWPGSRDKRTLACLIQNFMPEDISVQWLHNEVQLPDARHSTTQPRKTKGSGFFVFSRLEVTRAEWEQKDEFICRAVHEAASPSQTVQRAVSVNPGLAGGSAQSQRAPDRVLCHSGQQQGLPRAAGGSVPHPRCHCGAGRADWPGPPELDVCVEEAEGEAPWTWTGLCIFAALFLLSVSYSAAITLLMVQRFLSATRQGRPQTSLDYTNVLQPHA

Row | SMILES | IC50 [nM]
1 | CC(=O)N1CCC(Nc2nncn2[C@H]2CCc3sc(NC(=O)C4CC4)c(C(=O)NCC4CC4)c3C2)CC1 [Example 286, (5S)-5-[3-[(1-acetyl-4-piperidyl)amino]-1,2,4-triazol-4-yl]-2-(cyclopropanecarbonylamino)-N-(cyclopropylmethyl)-4,5,6,7-tetrahydrobenzothiophene-3-carboxamide] | < 1000
2 | COC(=O)N1CC[C@H](Nc2nncn2[C@H]2CCc3sc(NC(=O)C4CC4)c(C(=O)NCC4CC4)c3C2)C1 [Example 287, Methyl (3S)-3-[[4-[(5S)-2-(cyclopropanecarbonylamino)-3-(cyclopropylmethylcarbamoyl)-4,5,6,7-tetrahydrobenzothiophen-5-yl]-1,2,4-triazol-3-yl]amino]pyrrolidine-1-carboxylate] | < 1000
3 | CCNC(=O)N1CC[C@H](Nc2nncn2[C@H]2CCc3sc(NC(=O)C4CC4)c(C(=O)NCC4CC4)c3C2)C1 [Example 288, (3S)-3-[[4-[(5S)-2-(cyclopropanecarbonylamino)-3-(cyclopropylmethylcarbamoyl)-4,5,6,7-tetrahydrobenzothiophen-5-yl]-1,2,4-triazol-3-yl]amino]-N-ethyl-pyrrolidine-1-carboxamide] | < 1000
4 | Cn1nc(OC(F)(F)F)cc1Nc1nncn1[C@H]1CCc2sc(NC(=O)[C@H]3C[C@H]3F)c(C(=O)NCC3CC3)c2C1 [Example 292, (5S)—N-(cyclopropylmethyl)-2-[[(1R,2R)-2-fluorocyclopropanecarbonyl]amino]-5-[3-[[2-methyl-5-(trifluoromethoxy)pyrazol-3-yl]amino]-1,2,4-triazol-4-yl]-4,5,6,7-tetrahydrobenzothiophene-3-carboxamide] | < 1000
5 | Cn1nc(OC(F)(F)Cl)cc1Nc1nncn1[C@H]1CCc2sc(NC(=O)[C@H]3C[C@H]3F)c(C(=O)NCC3CC3)c2C1 [Example 293, (5S)-5-[3-[[5-[chloro(difluoro)methoxy]-2-methyl-pyrazol-3-yl]amino]-1,2,4-triazol-4-yl]-N-(cyclopropylmethyl)-2-[[(1R,2R)-2-fluorocyclopropanecarbonyl]amino]-4,5,6,7-tetrahydrobenzothiophene-3-carboxamide] | < 1000
6 | Cn1nc(OC(F)(F)F)cc1Nc1nncn1[C@H]1CCc2sc(NC(=O)C3CC3)c(C(=O)NCC3CC3)c2C1 [Example 294, (5S)-2-(cyclopropanecarbonylamino)-N-(cyclopropylmethyl)-5-[3-[[2-methyl-5-(trifluoromethoxy)pyrazol-3-yl]amino]-1,2,4-triazol-4-yl]-4,5,6,7-tetrahydrobenzothiophene-3-carboxamide] | < 1000
7 | Cn1nc(OC(F)(F)Cl)cc1Nc1nncn1[C@H]1CCc2sc(NC(=O)C3CC3)c(C(=O)NCC3CC3)c2C1 [Example 295, (5S)-5-[3-[[5-[chloro(difluoro)methoxy]-2-methyl-pyrazol-3-yl]amino]-1,2,4-triazol-4-yl]-2-(cyclopropanecarbonylamino)-N-(cyclopropylmethyl)-4,5,6,7-tetrahydrobenzothiophene-3-carboxamide] | < 1000
8 | Cc1nnc(-c2cc(Nc3nncn3[C@H]3CCc4sc(NC(=O)C5CC5)c(C(=O)NCC5CC5)c4C3)n(C)n2)o1 [Example 296, (5S)-2-cyclopropaneamido-N-(cyclopropylmethyl)-5-(3-{[1-methyl-3-(5-methyl-1,3,4-oxadiazol-2-yl)-1H-pyrazol-5-yl]amino}-4H-1,2,4-triazol-4-yl)-4,5,6,7-tetrahydro-1-benzothiophene-3-carboxamide] | < 1000
9 | COc1cnc(Nc2nncn2[C@H]2CCc3sc(NC(=O)C4CC4)c(C(=O)NCC4CC4)c3C2)c(C)n1 [Example 297, (5S)-2-(cyclopropanecarbonylamino)-N-(cyclopropylmethyl)-5-[3-[(5-methoxy-3-methyl-pyrazin-2-yl)amino]-1,2,4-triazol-4-yl]-4,5,6,7-tetrahydrobenzothiophene-3-carboxamide] | < 1000
10 | Cc1ccc2nc(N[C@H]3CCc4sc(NC(=O)C5CC5)c(C(=O)NCC5CC5)c4C3)sc2n1 [Example 298, (5S)-2-(cyclopropanecarbonylamino)-N-(cyclopropylmethyl)-5-[(5-methylthiazolo[5,4-b]pyridin-2-yl)amino]-4,5,6,7-tetrahydrobenzothiophene-3-carboxamide] | < 1000
11 | Cc1ncc(C#N)cc1Nc1nncn1[C@H]1CCc2sc(NC(=O)C3CC3)c(C(=O)NCC3CC3)c2C1 [Example 299, (5S)-5-[3-[(5-cyano-2-methyl-3-pyridyl)amino]-1,2,4-triazo-4-yl]-2-(cyclopropanecarbonylamino)-N-(cyclopropylmethyl)-4,5,6,7-tetrahydrobenzothiophene-3-carboxamide] | < 1000
12 | Cc1nc(C#N)ccc1Nc1nncn1[C@H]1CCc2sc(NC(=O)C3CC3)c(C(=O)NCC3CC3)c2C1 [Example 300, (5S)-5-[3-[(6-cyano-2-methyl-3-pyridyl)amino]-1,2,4-triazol-4-yl]-2-(cyclopropanecarbonylamino)-N-(cyclopropylmethyl)-4,5,6,7-tetrahydrobenzothiophene-3-carboxamide] | < 1000
13 | Cn1ccc(Nc2nncn2[C@H]2CCc3sc(NC(=O)C4CC4)c(C(=O)NCC4CC4)c3C2)cc1=O [Example 301, (5S)-2-(cyclopropanecarbonylamino)-N-(cyclopropylmethyl)-5-[3-[(1-methyl-2-oxo-4-pyridyl)amino]-1,2,4-triazol-4-yl]-4,5,6,7-tetrahydrobenzothiophene-3-carboxamide] | < 1000
14 | Cc1nc(Cl)ccc1Nc1nncn1[C@H]1CCc2sc(NC(=O)C3CC3)c(C(=O)NCC3CC3)c2C1 [Example 302, (5S)-5-[3-[(6-chloro-2-methyl-3-pyridyl)amino]-1,2,4-triazol-4-yl]-2-(cyclopropanecarbonylamino)-N-(cyclopropylmethyl)-4,5,6,7-tetrahydrobenzothiophene-3-carboxamide] | < 1000
15 | Cc1nc(C(F)(F)F)ccc1Nc1nncn1[C@H]1CCc2sc(NC(=O)C3CC3)c(C(=O)NCC3CC3)c2C1 [Example 303, (5S)-2-(cyclopropanecarbonylamino)-N-(cyclopropylmethyl)-5-[3-[[2-methyl-6-(trifluoromethyl)-3-pyridyl]amino]-1,2,4-triazol-4-yl]-4,5,6,7-tetrahydrobenzothiophene-3-carboxamide] | < 1000
16 | Cc1nnccc1Nc1nncn1[C@H]1CCc2sc(NC(=O)C3CC3)c(C(=O)NCC3CC3)c2C1 [Example 304, (5S)-2-(cyclopropanecarbonylamino)-N-(cyclopropylmethyl)-5-[3-[(3-methylpyridazin-4-yl)amino]-1,2,4-triazol-4-yl]-4,5,6,7-tetrahydrobenzothiophene-3-carboxamide] | < 1000
17 | Cn1nc(Cl)cc1Nc1nncn1[C@H]1CCc2sc(NC(=O)C3CC3)c(C(=O)NCC3CC3)c2C1 [Example 305, (5S)-5-[3-[(5-chloro-2-methyl-pyrazol-3-yl)amino]-1,2,4-triazol-4-yl]-2-(cyclopropanecarbonylamino)-N-(cyclopropylmethyl)-4,5,6,7-tetrahydrobenzothiophene-3-carboxamide] | < 1000
18 | C[C@@H]1C[C@@H]1C(=O)Nc1sc2c(c1C(=O)NCC1CC1)C[C@@H](n1cnnc1Nc1cc(OC(F)F)nn1C)CC2 [Example 306, (5S)—N-(cyclopropylmethyl)-5-[3-[[5-(difluoromethoxy)-2-methyl-pyrazol-3-yl]amino]-1,2,4-triazol-4-yl]-2-[[(1S,2R)-2-methylcyclopropanecarbonyl]amino]-4,5,6,7-tetrahydrobenzothiophene-3-carboxamide] | < 1000
19 | Cc1nscc1Nc1nncn1[C@H]1CCc2sc(NC(=O)C3CC3)c(C(=O)NCC3CC3)c2C1 [Example 307, (5S)-2-(cyclopropanecarbonylamino)-N-(cyclopropylmethyl)-5-[3-[(3-methylisothiazol-4-yl)amino]-1,2,4-triazol-4-yl]-4,5,6,7-tetrahydrobenzothiophene-3-carboxamide] | < 1000
20 | Cc1nocc1Nc1nncn1[C@H]1CCc2sc(NC(=O)C3CC3)c(C(=O)NCC3CC3)c2C1 [Example 308, (5S)-2-(cyclopropanecarbonylamino)-N-(cyclopropylmethyl)-5-[3-[(3-methylisoxazol-4-yl)amino]-1,2,4-triazol-4-yl]-4,5,6,7-tetrahydrobenzothiophene-3-carboxamide] | < 1000
21 | Cn1nc(OCC2CC2)cc1Nc1nncn1[C@H]1CCc2sc(NC(=O)[C@H]3C[C@@H]3F)c(C(=O)NCC3CC3)c2C1 [Example 309, (5S)-5-[3-[[5-(cyclopropylmethoxy)-2-methyl-pyrazol-3-yl]amino]-1,2,4-triazol-4-yl]-N-(cyclopropylmethyl)-2-[[(1R,2S)-2-fluorocyclopropanecarbonyl]amino]-4,5,6,7-tetrahydrobenzothiophene-3-carboxamide] | < 1000
22 | CCOc1cc(Nc2nncn2[C@H]2CCc3sc(NC(=O)[C@H]4C[C@@H]4F)c(C(=O)NCC4CC4)c3C2)n(C)n1 [Example 310, (5S)—N-(cyclopropylmethyl)-5-[3-[(5-ethoxy-2-methyl-pyrazol-3-yl)amino]-1,2,4-triazol-4-yl]-2-[[(1R,2S)-2-fluorocyclopropanecarbonyl]amino]-4,5,6,7-tetrahydrobenzothiophene-3-carboxamide] | < 1000
23 | Cn1nc(C(F)(F)F)cc1Nc1nncn1[C@H]1CCc2sc(NC(=O)[C@H]3C[C@H]3F)c(C(=O)NCC3CC3)c2C1 [Example 312, (5S)—N-(cyclopropylmethyl)-2-[[(1R,2R)-2-fluorocyclopropanecarbonyl]amino]-5-[3-[[2-methyl-5-(trifluoromethyl)pyrazol-3-yl]amino]-1,2,4-triazol-4-yl]-4,5,6,7-tetrahydrobenzothiophene-3-carboxamide] | < 1000
